Format in all cases: cell-based
Experiment [1] concerns the target T1, 3-hydroxy-3-methylglutaryl-coenzyme A reductase (Homo sapiens) (UniProt P04035).
T1 sequence (whole entry): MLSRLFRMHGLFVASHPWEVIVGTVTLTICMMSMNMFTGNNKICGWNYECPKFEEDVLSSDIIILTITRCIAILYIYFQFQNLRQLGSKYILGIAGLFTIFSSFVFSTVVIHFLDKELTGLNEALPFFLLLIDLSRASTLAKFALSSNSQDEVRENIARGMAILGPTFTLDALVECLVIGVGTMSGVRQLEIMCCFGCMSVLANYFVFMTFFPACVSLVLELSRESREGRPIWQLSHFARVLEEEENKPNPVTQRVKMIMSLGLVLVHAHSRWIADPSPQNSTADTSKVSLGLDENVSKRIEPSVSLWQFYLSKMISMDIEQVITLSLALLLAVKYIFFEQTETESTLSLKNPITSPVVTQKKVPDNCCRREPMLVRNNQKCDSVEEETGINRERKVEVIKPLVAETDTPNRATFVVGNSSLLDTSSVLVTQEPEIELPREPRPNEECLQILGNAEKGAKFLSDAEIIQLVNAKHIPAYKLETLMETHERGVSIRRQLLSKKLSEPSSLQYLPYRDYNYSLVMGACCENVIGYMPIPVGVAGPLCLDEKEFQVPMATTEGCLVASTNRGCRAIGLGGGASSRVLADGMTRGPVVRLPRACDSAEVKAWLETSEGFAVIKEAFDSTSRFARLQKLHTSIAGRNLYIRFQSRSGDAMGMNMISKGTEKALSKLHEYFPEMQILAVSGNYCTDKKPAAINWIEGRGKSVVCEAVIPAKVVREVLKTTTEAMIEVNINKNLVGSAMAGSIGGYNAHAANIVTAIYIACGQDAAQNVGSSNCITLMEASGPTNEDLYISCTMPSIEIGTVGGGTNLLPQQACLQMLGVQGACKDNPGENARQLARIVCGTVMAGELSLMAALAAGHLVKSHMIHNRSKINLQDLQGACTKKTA
The experiment is described as follows: Tested for the percent inhibition against HMG-CoA reductase transcription in HepG2 cells. The arrangement: concentration or dose not given beside the values. The following applies: concentration not given here.

The target of experiment [2] is T1, 3-hydroxy-3-methylglutaryl-coenzyme A reductase (Homo sapiens). In words: Tested for its percent inhibition against HMG-CoA reductase transcription in HepG2 cells in HMG-CoA reductase assay. As to conditions: concentration not given here.
For experiment [3] the target is unchanged. The experiment is described as follows: Tested for its percent inhibition against HMG-CoA reductase transcription in HepG2 cells in LDL-receptor binding assay. As to conditions: concentration not given here.
In experiment [4] the target is T2, 3-hydroxy-3-methylglutaryl-coenzyme A reductase (Homo sapiens, UniProt P04035).
T2 sequence (P04035 whole entry): T1 sequence (whole entry)
In words: Tested for its inhibitory activity against HMG-CoA reductase transcription in HepG2 cells.

Experiment [5] addresses T1, 3-hydroxy-3-methylglutaryl-coenzyme A reductase (Homo sapiens). The experiment is described as follows: Tested for its percent inhibition against HMG-CoA reductase transcription in HepG2 cells in HMG-CoA reductase m-RNA assay. As to conditions: concentration not given here.

pIC50: −log10 of the molar value.

On to `CC(C)(O)CCCCc1cccc(CC[C@]2(C)CC[C@@H](O)CC2)c1`, for which the inhibition in experiment [1] was 29.3%.
Same read-out and setting: to `CC(C)CCCC[C@@H]1C[C@H](/C=C/[C@]2(C)CC[C@@H](O)CC2)[C@@H](O)[C@H]1O` (stereo in doubt; 37) belongs 0%.
As for `C[C@H](CCCC(C)(C)O)[C@H]1CC[C@H]2[C@@H]3CC=C4C[C@@H](O)CC[C@]4(C)[C@H]3CC[C@]12C`, the inhibition in experiment [2] is 48.4%; in experiment [3], 64%; in experiment [1], 70%; in experiment [5], 58.2%. For the same compound, the pIC50 in experiment [4] is 6.52.
As to `CC(C)(O)CCCC[C@H]1CC[C@@H](/C=C/[C@]2(C)CC[C@@H](O)CC2)C1` (stereo in doubt; 28), in experiment [1], the inhibition came out at 0%.
`CC(C)(O)CCCCc1ccc(CC[C@]2(C)CC[C@@H](O)CC2)cc1`: in experiment [1], the inhibition stood at 0%.
Compound `CC(C)CCCC[C@@H]1C[C@H](/C=C/[C@]2(C)CC[C@@H](O)CC2)[C@@H](O)[C@H]1O` (stereo in doubt; 7) returned an inhibition in experiment [1] of 0%.
The same measure, in the same setting: to `CC(C)(O)CCCCc1ccc(/C=C/[C@]2(C)CC[C@@H](O)CC2)cc1` belongs 0%.
Still for that read-out and setting: in the case of `CC(C)(O)CCCC[C@H]1CC[C@@H](CC[C@]2(C)CC[C@@H](O)CC2)C1` it was 0%; in that of `CC(C)(O)CCCC[C@H]1CC[C@@H](/C=C/[C@]2(C)CC[C@@H](O)CC2)C1` (stereo in doubt; 6), 0%.
As for `CC(C)(O)CCCCc1cccc(/C=C/[C@]2(C)CC[C@@H](O)CC2)c1`, the inhibition in experiment [2] worked out at 29.7%; in experiment [1], 46.3%; in experiment [5], 72.7%. The same compound showed a pIC50 in experiment [4] of 5.00.
